Columns and labels:
[1] = molecular target: SERT (Homo sapiens, UniProt P31645); experiment: biochemical; assay type: binding
[2] = molecular target: D2 (Homo sapiens, UniProt P14416); details: qualitative statement
[3] = molecular target: D1 (Homo sapiens, UniProt P21728); details: qualitative statement
D1, sequence (P21728 whole entry): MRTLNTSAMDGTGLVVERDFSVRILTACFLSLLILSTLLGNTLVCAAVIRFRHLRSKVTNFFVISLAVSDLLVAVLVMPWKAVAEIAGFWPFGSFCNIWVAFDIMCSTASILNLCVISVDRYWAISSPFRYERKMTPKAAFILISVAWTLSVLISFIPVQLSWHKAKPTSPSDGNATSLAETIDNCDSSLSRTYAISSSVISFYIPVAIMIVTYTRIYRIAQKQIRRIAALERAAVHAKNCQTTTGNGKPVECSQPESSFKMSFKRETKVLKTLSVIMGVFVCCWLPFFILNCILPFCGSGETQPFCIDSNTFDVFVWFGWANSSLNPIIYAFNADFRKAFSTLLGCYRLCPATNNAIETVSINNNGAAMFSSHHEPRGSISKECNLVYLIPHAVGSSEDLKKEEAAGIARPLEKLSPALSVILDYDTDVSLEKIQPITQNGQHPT

SERT, sequence (P31645 whole entry, species assumed): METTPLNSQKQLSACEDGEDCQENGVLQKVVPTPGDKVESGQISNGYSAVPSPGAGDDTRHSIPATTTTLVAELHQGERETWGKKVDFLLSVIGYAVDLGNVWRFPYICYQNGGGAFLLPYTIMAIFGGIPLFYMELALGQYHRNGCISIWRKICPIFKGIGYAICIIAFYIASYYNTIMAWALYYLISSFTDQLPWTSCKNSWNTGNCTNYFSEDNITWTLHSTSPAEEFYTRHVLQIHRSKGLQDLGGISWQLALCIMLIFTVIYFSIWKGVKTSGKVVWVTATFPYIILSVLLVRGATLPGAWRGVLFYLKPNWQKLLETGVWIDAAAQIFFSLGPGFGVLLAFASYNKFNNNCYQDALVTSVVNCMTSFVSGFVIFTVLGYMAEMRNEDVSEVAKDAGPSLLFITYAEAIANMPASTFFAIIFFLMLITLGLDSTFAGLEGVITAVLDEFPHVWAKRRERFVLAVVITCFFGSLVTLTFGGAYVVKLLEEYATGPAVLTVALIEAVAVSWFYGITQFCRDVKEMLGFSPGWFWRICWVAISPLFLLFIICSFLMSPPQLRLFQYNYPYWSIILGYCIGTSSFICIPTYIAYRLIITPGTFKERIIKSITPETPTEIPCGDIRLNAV
D2, sequence (P14416 1-414 isoform P14416-2): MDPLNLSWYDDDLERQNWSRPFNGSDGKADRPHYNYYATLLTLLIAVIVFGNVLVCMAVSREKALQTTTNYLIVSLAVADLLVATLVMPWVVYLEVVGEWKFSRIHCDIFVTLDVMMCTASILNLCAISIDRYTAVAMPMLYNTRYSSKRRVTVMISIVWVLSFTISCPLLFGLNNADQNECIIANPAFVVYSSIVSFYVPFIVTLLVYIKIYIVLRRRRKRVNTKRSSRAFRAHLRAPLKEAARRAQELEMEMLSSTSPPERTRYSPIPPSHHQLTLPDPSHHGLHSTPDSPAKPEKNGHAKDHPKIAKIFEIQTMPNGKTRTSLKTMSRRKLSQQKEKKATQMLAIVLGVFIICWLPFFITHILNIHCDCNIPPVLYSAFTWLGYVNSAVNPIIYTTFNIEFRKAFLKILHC

Ki ([1]; read-out: Ki (nM) or maximum inhibition) [nM] | Structure (SMILES) | SERT activity, in words ([1]; qualitative statement) | D2 affinity, in words [2] | D1 receptor binding, in words [3]
 | O=C1CN2c3c(cccc3[C@H]3CN(CCCOc4ccc(F)cc4)CC[C@H]32)N1 [Example 1, (6bS,10aR)-8-(3-(4-fluorophenoxy)propyl)-6b,7,8,9,10,10a-hexahydro-1H-pyrido[3′,4′:4,5]pyrrolo[1,2,3-de]quinoxalin-2(3H)-one] | no SERT activity | weak D2 affinity | moderately strong D1 receptor binding
≤ 600 | O=C1CN2c3c(cccc3[C@@H]3CN(CCCOc4ccc(F)cc4)CC[C@@H]32)N1 [Compound A, reference compound] |  |  | 
